For series [1] the following is noted: cited from earlier work.
The test system of series [2] is Lymphocytes. The following applies: initial exposure time. An excerpt: (§1) The experimental animals—Rattus norvegicus (Wistar strain; 8–10 weeks old; 120 ± 20 gm; males only) were acquired from Indian Institute of Integrative Medicine (IIIM-CSIR) (Jammu, India), quarantined, acclimatized and sacrificed as per standard practice conforming to the University Ethical Regulations. After acclimatization, rats were divided into five groups by stratified randomization with five animals per group. […] Distilled water was used to prepare dosing solutions of test agent and injected via intraperitoneal (i.p.) injection. At 24, 48 and 72 h post-dosing, 5 rats per duration were sacrificed and necessary tissues were isolated for different cytogenetic and molecular parameters. For CA assessment, separate experimental lot was used due to colchicine treatment.
(§2) WBCs were isolated by following the protocol of Lone et al.. Blood was collected in 0.1% EDTA from retro-orbital plexus of rat, followed by incubation for 30 min. 500 µL of blood was then added to a centrifuge tube with 1 mL FACS lysing solution. The blood was incubated for 10 min and centrifuged (2000 rpm, 10 min) at 25 °C. After discarding the supernatant, pellet was washed in 1mL FACS lysing solution followed by centrifuging at 2000 rpm for 5 min. Repeated this step twice and then pellet was put in 500 µL of PBS, leaving only WBCs.
Protocol of Majeed and colleagues was employed for flow cytometric measurements of change in Ψm. […] Leukocytes were identified via forward and side scatter.

Series [3] has as its system bone marrow cells. To be noted: for P/N: PCE:NCE ratio.
Source text: as §1
MN assay followed the protocol of Schmid. Immediately after sacrificing the animals, both femurs were removed from the pelvic bone and freed from the extra muscles. After cutting the epiphyses, the bone marrow was collected by gentle flushing with 2 mL FBS. Centrifuge cell suspension at 1000 rpm for 5 min and discarded the supernatant. The pellets obtained were saved in 50 μL fresh FBS. Re-suspended the cell pellet and a small drop was spread onto clean grease-free glass slides and dried in air. By using absolute methanol, the smears were fixed for 10min following the staining by May-Grunwald / buffered Giemsa at pH 6.8. Micronuclei and the ratio of polychromatic erythrocyte (PCE) to normochromatic erythrocyte (NCE) i.e., P/N were scored. The micronucleus frequencies (indicated as mean percent micronucleated cells) were examined by considering the micronucleated PCEs number (MNPCEs) from at least 2000 PCEs/animal. Cytotoxic effect of test compound was evaluated by calculating the PCE:NCE ratio in at least 1000 erythrocytes per animal. For final observation, DPX mounted slides were photographed at 100× with oil immersion (Olympus U—PMTV microscope mounted with optical zoom camera).

Series [4] has as its system rat WBCs. To be noted: Mean ± SD, 40 mg/kgbw; for Sub-G1: cells percentage (apoptosis); for G1 / G2/M / S: cells percentage.
Source text: as §1, §2
Post completion of exposures, PBS was used to wash the harvested cells and fixed in cold ethanol (70%) for 48 h. Cells were digested by RNase (400 μg/mL) at 37 °C for 45 min. After incubating the cells with Propidium iodide (10 μg/mL), examined instantly on flow cytometer FACSAriaII (Becton Dickinson, San Jose, CA, USA). A total of 10,000 events were obtained for cell cycle analysis.

Like-named read-outs stand apart in the source and are kept apart here. Marks after values point to notes of the source that are not given here.

For `CNC(=O)CSP(=S)(OC)OC` [DM, 0,0- Dimethyl S-(N-methylcarbamoylmethyl) phosphorodithiote], in series [1], the hazard label result is recorded as “Class II, moderately hazardous”. Further, the “maximum MMP loss” value in series [2] (lymphocytes) is given as “greater than 30%”. The “MMP loss in lymphocytes” value in series [2] (range over increased DM doses) is listed as 6.3–32.3%. Moreover, the “MNPCE (Mean% ± SD)” value in series [3] (20 mg/kgbw i.p., 24 h) is 4.4 ± 0.51 %; in series [3] (20 mg/kgbw i.p., 48 h) it was 4.0 ± 0.44 %; in series [3] (20 mg/kgbw i.p., 72 h), 3.6 ± 0.50 %; in series [3] (40 mg/kgbw i.p., 24 h) it was 5.2 ± 0.58 %; in series [3] (40 mg/kgbw i.p., 48 h), 4.8 ± 0.86 %; in series [3] (40 mg/kgbw i.p., 72 h) it was 4.1 ± 0.73 %. Further, the “MNPCE (Mean% ± SD)” value in series [3] (60 mg/kgbw i.p., 24 h) turned out to be 5.6 ± 0.7%; in series [3] (60 mg/kgbw i.p., 48 h), 4.9 ± 0.74 %; in series [3] (60 mg/kgbw i.p., 72 h), 3.8 ± 0.80 %. For the same molecule, the P/N in series [3] (20 mg/kgbw i.p., 24 h) was 0.740 *; in series [3] (20 mg/kgbw i.p., 48 h), 0.736 *; in series [3] (20 mg/kgbw i.p., 72 h), 0.731 *; in series [3] (40 mg/kgbw i.p., 24 h), 0.728 *; in series [3] (40 mg/kgbw i.p., 48 h) it was 0.715 *; in series [3] (60 mg/kgbw i.p., 24 h), 0.725 *. Besides, the P/N in series [3] (60 mg/kgbw i.p., 48 h) is 0.721 *; in series [3] (60 mg/kgbw i.p., 72 h) it was 0.718 *.

Turning to `O=P1(N(CCCl)CCCl)NCCCO1` (centres unmarked) [Cyclophosphamide, reference compound], in series [4] (24 h), the Sub-G1 is 91.3 ± 4.12 ***^,a, the G1 stood at 6.06 ± 1.26, the G2/M worked out at 2.53 ± 0.06 and the S was found to be 0.2 ± 0.01. Besides, in series [4] (48 h), the Sub-G1 is reported as 76.3 ± 4.16 ***^,a, the G1 is on record as 21.33 ± 2.41, the G2/M was 1.3 ± 0.2 and the S is recorded as 0.06 ± 0.01. Besides, in series [4] (72 h), the Sub-G1 is reported as 98.4 ± 6.01 ***^,a, the G1 turned out to be 0.87 ± 0.03, the G2/M amounted to 0.4 ± 0.02 and the S is 0.33 ± 0.11. Also, in series [3] (40 mg/kgbw i.p., 24 h), the “MNPCE (Mean% ± SD)” value turned out to be 10.6 ± 0.81 % and the P/N is listed as 0.604 *. Moreover, in series [3] (40 mg/kgbw i.p., 48 h), the “MNPCE (Mean% ± SD)” value turned out to be 8.2 ± 0.66 % and the P/N is given as 0.529 **. For the same molecule, in series [3] (40 mg/kgbw i.p., 72 h), the “MNPCE (Mean% ± SD)” value worked out at 7.1 ± 0.43 % and the P/N was 0.581 **.

(Values after article PMC7712428, “Dimethoate Induces DNA Damage and Mitochondrial Dysfunction Triggering Apoptosis in Rat Bone-Marrow and Peripheral Blood Cells” (Toxics, 2020).)
